Assay results as given in US4077999A, “Novel oxime ethers” (Egyt Gyogyszervegyeszeti Gyar, priority 1976, dated 1978).
Where two headings read alike, the source gives them in different places.

Tests used:
in vivo [1] = details: mouse
reserpine = test: Reserpine antagonistic effect, oral administration; assay type: in vivo; details: for ED50: Mus musculus, mice, oral administration, read-out: Reserpine antagonism ED50
Description: (§1) The tetrabenazine-reserpine antagonistic effect was investigated on mice in groups of ten animals each, at oral administration. The inhibition or suspension of the effect of the observed maximum dose was recorded, and the ED50 values were calculated on the basis of the dose vs. effect curves.

tetrabenazine = test: Tetrabenazine antagonistic effect, oral administration; assay type: in vivo; details: for ED50: Mus musculus, read-out: Tetrabenazine antagonism, ED50
Description: as §1

in vivo [2] = test: in vivo
ischiadic nerve of rats = test: Local analgesic effect (method of Truant and d'Amato), motor paralysis and its duration; assay type: in vivo; details: for Duration, minutes (o.5%): 0.5 % concentration; for Duration, minutes (o.5%) / Duration, minutes (1.0%): duration of local analgesic effect (motor paralysis); for Duration, minutes (1.0%): 1.0 % concentration; for Relative efficiency: local analgesic effect, referred to Lidocaine
Excerpt: The local analgesic effect was investigated on the ischiadic nerve of rats by means of the method of Truant and d'Amato (Truant, A.P. and Wiedling, S.: Acta Chirurg. Scand. 116, 351 /1958/). Lidocaine served as reference substance. […]

isolated rat-ileum = test: Spasmolytic effect on non-striated muscles in isolated rat-ileum (method of Brock et al.); details: related to papaverine
Description: The spasmolytic effect on non-striated muscles was determined in isolated rat-ileum by the method of Brock et al. (Brock, N., Geks, J. and Lorenz, D.: Arch. Exper. Path. u. Pharmacol. 215, 492 /1952/), applying papaverine as reference substance. In order to characterize the efficiency of an individual compound, the efficiency related to that of papaverine and the LD50 values observed on oral administration are shown in Table II.

nicotine lethality = test: Inhibition of nicotine lethality (method of Stone), oral administration; assay type: in vivo, mice; details: for Therapeutic index: LD50/ED50; for ED50: Mus musculus
[3] = mice, oral administration, Table IV
[4] = inhibition of nicotine lethality
[5] = inhibition of nicotine lethality, mice, oral administration, read-out: ED50
[6] = mice, oral administration, Table III
[7] = oral administration, Table II, read-out: LD50 p.o.

Row | Structure (SMILES) | ED50 (reserpine) [mg/kg] | ED50 (tetrabenazine; po) [mg/kg] | LD50 (in vivo [2]; po) [mg/kg] | Duration, minutes (o.5%) (ischiadic nerve of rats) [min] | Duration, minutes (1.0%) (ischiadic nerve of rats) [min] | Relative efficiency (ischiadic nerve of rats) | other results
1 | CN(C)CCC=C1c2ccccc2CCc2ccccc21 [Amitriptylin, reference compound] | 65 | 13 |  |  |  |  | LD50 (in vivo [1]; [3]): 225 mg/kg; Therapeutic index (reserpine; reserpine antagonism): 3.5; Therapeutic index (tetrabenazine; tetrabenazine antagonism): 17.3
2 | CN(C)CCCON=C1CCCCC1=Cc1ccccc1 [Example 1, 2-Benzal-1-(3'-dimethylaminopropoxyimino)-cyclohexane] | 27 | 80 | 560 | 99 | 115 | 1.7 | LD50 (in vivo [1]; po): 560 mg/kg; Therapeutic index (reserpine; mouse, in vivo, po): 20.7; Therapeutic index (tetrabenazine; mouse, in vivo, po): 7.0
3 | CCN(CC)CCON=C1CCCCC1=Cc1ccccc1 [Example 2, 2-Benzal-1-(2'-diethylaminoethoxyimino)-cyclohexane] |  |  | 430 | 72 | 111 | 3.2 | Relative efficiency (isolated rat-ileum): 1.73
4 | NCCON=C1CCCCC1=Cc1ccccc1 [Example 4, 1-(2'-Aminoethoxyimino)-2-benzalcyclohexane] |  |  |  |  |  |  | Therapeutic index (nicotine lethality; [4]): 36.4; ED50 (nicotine lethality; [5]): 11 mg/kg; LD50 (in vivo [1]; [6]): 400 mg/kg
5 | CN(C)CCON=C1CCCC1=Cc1ccccc1 [Example 5, 2-Benzal-1-(2'-dimethylaminoethoxyimino)-cyclopentane] |  |  | 450 | 68 | 96 | 1.8 | 
6 | CCN(CC)CCON=C1CCCC1=Cc1ccccc1 [Example 7, 2-Benzal-1-(2'-diethylaminoethoxyimino)-cyclopentane] |  |  | 210 | 94 | 127 | 1.8 | 
7 | CC(C)N(CCON=C1CCCC1=Cc1ccccc1)C(C)C [Example 8, 2-Benzal-1-(2'-diisopropylaminoethoxyimino)-cyclopentane] |  |  | 450 | 66 | 129 | 1.1 | 
8 | CN(C)CCCON=C1CCCCCC1=Cc1ccccc1 [Example 10, 2-Benzal-1-(3'-dimethylaminopropoxyimino)-cycloheptane] |  |  |  |  |  |  | Relative efficiency (isolated rat-ileum): 2.42; LD50 (in vivo [2]; [7]): 550 mg/kg
9 | CC(C)N(CCON=C1CCCCCC1=Cc1ccccc1)C(C)C [Example 11, 2-Benzal-1-(2'-diisopropylaminoethoxyimino)-cycloheptane] |  |  |  |  |  |  | Relative efficiency (isolated rat-ileum): 3.01; LD50 (in vivo [2]; [7]): 325 mg/kg
10 | CN(C)CCCON=C1CCCCCC1=Cc1ccc(Cl)cc1 [Example 12, 1-(3'-Dimethylaminopropoxyimino)-2-(p-chlorobenzal)-cycloheptane] |  |  |  |  |  |  | Therapeutic index (nicotine lethality; [4]): 36.3; ED50 (nicotine lethality; [5]): 40 mg/kg; LD50 (in vivo [1]; [6]): 1450 mg/kg
11 | COc1ccc(C=C2CCCCCC2=NOCCCN(C)C)cc1 [Example 13, 1-(3'-Dimethylaminopropoxyimino)-2-(p-methoxybenzal)-cycloheptane] | 80 | 70 |  |  |  |  | Relative efficiency (isolated rat-ileum): 1.96; LD50 (in vivo [2]; [7]): 1000 mg/kg; LD50 (in vivo [1]; [3]): 1000 mg/kg; Therapeutic index (reserpine; reserpine antagonism): 12.5; Therapeutic index (tetrabenazine; tetrabenazine antagonism): 14.3
12 | COc1ccccc1C=C1CCCCC1=NOCCCN(C)C [Example 15, 1-(3'-Dimethylaminopropoxyimino)-2-(o-methoxybenzal)-cyclohexane] |  |  | 880 | 92 | 160 | 1.7 | 
13 | COc1ccccc1C=C1CCCCC1=NOCC(C)CN(C)C (stereo not drawn) [Example 18, 1-(2'-Methyl-3'-dimethylaminopropoxyimino)-2-(o-methoxybenzal)-cyclohexane] |  |  |  |  |  |  | Relative efficiency (isolated rat-ileum): 2.43; LD50 (in vivo [2]; [7]): 650 mg/kg
14 | CN(C)CCCON=C1CCCCC1=Cc1ccc(Cl)cc1 [Example 19, 1-(Dimethylaminopropoxyimino)-2-(p-chlorobenzal)-cyclohexane] | > 180 | 34 |  |  |  |  | LD50 (in vivo [1]; [3]): 900 mg/kg; Therapeutic index (reserpine; reserpine antagonism): 5.0; Therapeutic index (tetrabenazine; tetrabenazine antagonism): 26.5
15 | CN(C)CCCON=C1CCCCC1=Cc1ccccc1Cl [Example 21, 1-(Dimethylaminopropoxyimino)-2-(o-chlorobenzal)-cyclohexane] | > 100 | 22 |  |  |  |  | LD50 (in vivo [1]; [3]): 1500 mg/kg; Therapeutic index (reserpine; reserpine antagonism): 15.0; Therapeutic index (tetrabenazine; tetrabenazine antagonism): 68.2
16 | CN(C)CCON=C1CCCC1=Cc1ccccc1 [Example 27, 2-Benzal-1-(2'-dimethylaminoethoxyimino)-cyclopentane] | 18 | 120 |  |  |  |  | Therapeutic index (nicotine lethality; [4]): 12.8; ED50 (nicotine lethality; po): 47 mg/kg; LD50 (in vivo [1]; [3]): 600 mg/kg; Therapeutic index (reserpine; reserpine antagonism): 33.0; Therapeutic index (tetrabenazine; tetrabenazine antagonism): 5.0
17 | CCN(CC)CC(=O)Nc1c(C)cccc1C [Lidocaine, reference compound] |  |  |  | 28 | 52 |  | 
18 | COc1ccc(Cc2nccc3cc(OC)c(OC)cc23)cc1OC [Papaverine, reference compound] |  |  |  |  |  |  | LD50 (in vivo [2]; [7]): 367 mg/kg
19 | OC(CCN1CCCCC1)(c1ccccc1)C1CCCCC1 (stereo not drawn) [Trihexyphenidyl (Artane), Trihexyphenidyl, reference compound] |  |  |  |  |  |  | ED50 (nicotine lethality; [5]): 40 mg/kg
